Results: US20180169030A1, “DRUG CARRIER AND METHOD OF FABRICATING THE SAME” (priority 2016, published 2018)

System: Hepatoma cells
Conditions: 75 ppm boron-10
Procedure: The drug carrier prepared in the above embodiments applied to the boron neutron capture therapy for cells was tested. The test method is described in detail below. Referring to FIG. 8, Tsing Hua Open-pool Reactor (THOR) 200 was used. An acrylic plate 204 was used as a carrier of 96-well plate 210. Hepatoma cells 206 were placed in the 96-well plate. Thermal neutrons 208 were used to irradiate the 96-well plate 210. An acrylic cube 202 was placed behind the carrier to slow down the thermal neutrons 208, so as to shorten the irradiation time.
Group I represents culture medium. Group J represents a boric acid solution containing 75 ppm of boron-10. Group K represents the drug carrier covering boric acid containing 75 ppm of boron-10. Group L represents the drug carrier without covering boric acid. The vertical axis is cell number percentage (%). The thermal neutron irradiation time was 27.67 minutes. After the thermal neutron irradiation, changes in cell numbers of each group were tested using the cell toxicity analysis kit (Wst-1 assay) after 24 hours.

Substance: boric acid
- part of mortality rate caused by toxicity of boric acid / by drug carrier (not by irradiation): 40%
- part of mortality rate caused by irradiation of thermal neutron (irradiation time 27.67 minutes): 15%
- mortality rate after irradiation of thermal neutron (irradiation time 27.67 minutes, Wst-1 after 24 hours): 55%
